Laboratory results taken from patent US10696615B2, “Prenylated hydroxystilbenes” (The University of Sydney, priority 2011, dated 2020).

Legend:
CCRF-CEM = assay: NCI in vitro cancer screen, Leukemia; format: cell-based, human; details: for GI50 / CC50: Homo sapiens; for CC50: read-out: LC50 (the source's name)
EKVX = assay: NCI in vitro cancer screen, Non-Small Cell Lung Cancer; format: cell-based, human; details: for GI50 / CC50: Homo sapiens; for CC50: read-out: LC50 (the source's name)
HOP-62 = assay: as above; format: cell-based, human; details: HOP-62; for GI50 / CC50: Homo sapiens; for CC50: read-out: LC50 (the source's name)
HOP-92 = assay: as above; format: cell-based, human; details: HOP-92; for GI50 / CC50: Homo sapiens; for CC50: read-out: LC50 (the source's name)
NCI-H226 = assay: as above; format: cell-based, human; details: NCI-H226; for GI50 / LC50 (50% lethal concentration): Homo sapiens
NCI-H23 = assay: as above; format: cell-based, human; details: NCI-H23; for GI50 / LC50: Homo sapiens
HCT-116 = assay: NCI in vitro cancer screen, Colon Cancer; format: cell-based, human; details: HCT-116; for GI50 / LC50 (concentration killing 50% of cells): Homo sapiens
HT29 = assay: NCI in vitro cancer screen, Colon Cancer; format: cell-based, human; details: HT29; for GI50 / CC50: Homo sapiens, HT-29; for CC50: read-out: LC50 (the source's name)
KM12 = assay: NCI in vitro cancer screen, Colon Cancer; format: cell-based, human; details: KM12; for GI50 / CC50: Homo sapiens; for CC50: read-out: LC50 (the source's name)
SW-620 = assay: NCI in vitro cancer screen, Colon Cancer; format: cell-based, human; details: SW-620; for GI50 / CC50: Homo sapiens; for CC50: read-out: LC50 (the source's name)
SF-268 = assay: NCI in vitro cancer screen, CNS Cancer; format: cell-based, human; details: SF-268; for GI50 / CC50: Homo sapiens; for CC50: read-out: LC50 (the source's name)
SF-539 = assay: NCI in vitro cancer screen, CNS Cancer; format: cell-based; details: SF-539; for GI50 / CC50: Homo sapiens; for CC50: read-out: LC50 (the source's name)
SNB-19 = assay: NCI in vitro cancer screen, CNS Cancer; format: cell-based, human; details: SNB-19; for GI50 / CC50: Homo sapiens; for CC50: read-out: LC50 (the source's name)
U251 = assay: NCI in vitro cancer screen, CNS Cancer; format: cell-based, human; details: U251; for GI50 / CC50: Homo sapiens, U-251; for CC50: read-out: LC50 (the source's name)
SK-MEL-28 = assay: NCI in vitro cancer screen, Melanoma; format: cell-based, human; details: SK-MEL-28; for GI50 / LC50: Homo sapiens
SK-MEL-5 = assay: NCI in vitro cancer screen, Melanoma; format: cell-based, human; details: SK-MEL-5; for GI50 / CC50: Homo sapiens; for CC50: read-out: LC50 (the source's name)
UACC-257 = assay: NCI in vitro cancer screen, Melanoma; format: cell-based, human; details: UACC-257; for GI50 / CC50: Homo sapiens; for CC50: read-out: LC50 (the source's name)
IGROV1 = assay: NCI in vitro cancer screen, Ovarian Cancer; format: cell-based, human; details: IGROV1; for GI50 / CC50: Homo sapiens, IGROV-1; for CC50: read-out: LC50 (the source's name)
OVCAR-3 = assay: NCI in vitro cancer screen, Ovarian Cancer; format: cell-based, human; details: OVCAR-3; for GI50 / CC50: Homo sapiens; for CC50: read-out: LC50 (the source's name)
OVCAR-4 = assay: NCI in vitro cancer screen, Ovarian Cancer; format: cell-based, human; details: OVCAR-4; for GI50 / CC50: Homo sapiens; for CC50: read-out: LC50 (the source's name)
OVCAR-5 = assay: NCI in vitro cancer screen, Ovarian Cancer; format: cell-based, human; details: OVCAR-5; for GI50 / CC50: Homo sapiens; for CC50: read-out: LC50 (the source's name)
OVCAR-8 = assay: NCI in vitro cancer screen, Ovarian Cancer; format: cell-based, human; details: OVCAR-8; for GI50 / CC50: Homo sapiens; for CC50: read-out: LC50 (the source's name)
CAKI-1 = assay: NCI in vitro cancer screen, Renal Cancer; format: cell-based, human; details: CAKI-1; for GI50 / CC50: Homo sapiens; for CC50: read-out: LC50 (the source's name)
TK-10 = assay: NCI in vitro cancer screen, Renal Cancer; format: cell-based, human; details: TK-10; for GI50 / LC50: Homo sapiens
DU-145 = assay: NCI in vitro cancer screen, Prostate Cancer; format: cell-based, human; details: DU-145; for GI50 / CC50: Homo sapiens; for CC50: read-out: LC50 (the source's name)
MCF7 = assay: NCI in vitro cancer screen, Breast Cancer; format: cell-based, human; details: MCF7; for GI50 / CC50: Homo sapiens; for CC50: read-out: LC50 (the source's name)
HS 578T = assay: NCI in vitro cancer screen, Breast Cancer; format: cell-based, human; details: for GI50 / CC50: Homo sapiens; for CC50: read-out: LC50 (the source's name)
MDA-MB-468 = assay: NCI in vitro cancer screen, Breast Cancer; format: cell-based, human; details: MDA-MB-468; for GI50 / CC50: Homo sapiens; for CC50: read-out: LC50 (the source's name)

## COc1cc(/C=C/c2cc(O)cc(OCC=C(C)C)c2)ccc1O [USYDS2, (E)-3-(3-methyl-2-butenyloxy)-4′,5-dihydroxy-3′-methoxystilbene]
CCRF-CEM
  TGI: >100 µM
  GI50: 5.06 µM
  CC50: > 100 µM
EKVX
  TGI: 25.2 µM
  GI50: 9.04 µM
  CC50: 66.4 µM
HOP-62
  TGI: 18.5 µM
  GI50: 4.44 µM
  CC50: 43.4 µM
HOP-92
  TGI: 21.1 µM
  GI50: 3.98 µM
  CC50: 60.1 µM
NCI-H226
  GI50: 5.43 µM
  LC50 (50% lethal concentration): 46.4 µM
  TGI: 19.1 µM
NCI-H23
  GI50: 2.89 µM
  LC50: > 100 µM
  TGI: 23.6 µM
HCT-116
  TGI: 11.9 µM
  GI50: 2.09 µM
  LC50 (concentration killing 50% of cells): 40 µM
HT29
  TGI: 32.2 µM
  GI50: 17.4 µM
  CC50: 59.6 µM
KM12
  GI50: 2.09 µM
  CC50: 45 µM
  TGI: 11.7 µM
SW-620
  GI50: 0.53 µM
  CC50: 40.7 µM
  TGI: 14.0 µM
SF-268
  GI50: 4.5 µM
  CC50: 51.6 µM
  TGI: 19.2 µM
SF-539
  GI50: 1.92 µM
  CC50: 50.2 µM
  TGI: 13.8 µM
SNB-19
  GI50: 5.02 µM
  CC50: 53.6 µM
  TGI: 20.4 µM
U251
  GI50: 2.96 µM
  CC50: 41 µM
  TGI: 14.7 µM
SK-MEL-28
  GI50: 5.04 µM
  LC50: 46.7 µM
  TGI: 19.4 µM
SK-MEL-5
  GI50: 1.58 µM
  CC50: 34.3 µM
  TGI: 11.5 µM
UACC-257
  GI50: 7.89 µM
  CC50: 46 µM
  TGI: 20.6 µM
IGROV1
  GI50: 5.84 µM
  CC50: > 100 µM
  TGI: 46.7 µM
OVCAR-3
  GI50: 3.02 µM
  CC50: 36.1 µM
  TGI: 10.7 µM
OVCAR-4
  GI50: 5.34 µM
  CC50: > 100 µM
  TGI: 28.0 µM
OVCAR-5
  GI50: 10.1 µM
  CC50: 60.9 µM
  TGI: 24.8 µM
OVCAR-8
  GI50: 2.8 µM
  CC50: 44.6 µM
  TGI: 14.8 µM
CAKI-1
  TGI: >100 µM
  GI50: 6.13 µM
  CC50: > 100 µM
TK-10
  GI50: 4.69 µM
  LC50: 40.1 µM
  TGI: 14.3 µM
DU-145
  TGI: 12.5 µM
  GI50: 3.05 µM
  CC50: 37.8 µM
MCF7
  GI50: 1.24 µM
  CC50: 41 µM
  TGI: 15.0 µM
HS 578T
  TGI: 10.3 µM
  GI50: 1.28 µM
  CC50: > 100 µM
MDA-MB-468
  GI50: 2.72 µM
  CC50: 36.8 µM
  TGI: 9.41 µM

## CC(C)=CCOc1cc(O)cc(/C=C/c2ccc(O)c(O)c2)c1 [USYDS4, (E)-3-(3-methyl-2-butenyloxy)-3′,4′,5-trihydroxystilbene]
CCRF-CEM
  TGI: >100 µM
  GI50: 3.5 µM
  CC50: > 100 µM
EKVX
  TGI: 59.6 µM
  GI50: 9.55 µM
  CC50: > 100 µM
HOP-62
  TGI: 26.3 µM
  GI50: 6.49 µM
  CC50: 83.4 µM
HOP-92
  TGI: 13.6 µM
  GI50: 1.92 µM
  CC50: 62.3 µM
NCI-H226
  GI50: 5.14 µM
  LC50 (50% lethal concentration): 78 µM
  TGI: 23.1 µM
NCI-H23
  GI50: 3.42 µM
  LC50: 81.9 µM
  TGI: 20.8 µM
HCT-116
  TGI: 16.0 µM
  GI50: 4.55 µM
  LC50 (concentration killing 50% of cells): 40.6 µM
HT29
  TGI: 32.5 µM
  GI50: 16.3 µM
  CC50: 64.7 µM
KM12
  GI50: 3.27 µM
  CC50: 46.5 µM
  TGI: 14.2 µM
SW-620
  GI50: 2.97 µM
  CC50: 46.5 µM
  TGI: 16.6 µM
SF-268
  GI50: 3.89 µM
  CC50: > 100 µM
  TGI: 23.2 µM
SF-539
  GI50: 3.45 µM
  CC50: 97.5 µM
  TGI: 22.3 µM
SNB-19
  GI50: 10.5 µM
  CC50: 63.8 µM
  TGI: 25.8 µM
U251
  GI50: 3.67 µM
  CC50: 45.5 µM
  TGI: 15.6 µM
SK-MEL-28
  GI50: 9.18 µM
  LC50: 77.9 µM
  TGI: 27.6 µM
SK-MEL-5
  GI50: 1.42 µM
  CC50: 30 µM
  TGI: 8.35 µM
UACC-257
  GI50: 5.44 µM
  CC50: 48.6 µM
  TGI: 19.4 µM
IGROV1
  GI50: 3.74 µM
  CC50: > 100 µM
  TGI: 44.8 µM
OVCAR-3
  GI50: 3.98 µM
  CC50: 44.9 µM
  TGI: 15.0 µM
OVCAR-4
  GI50: 3.98 µM
  CC50: > 100 µM
  TGI: 50.4 µM
OVCAR-5
  GI50: 15.9 µM
  CC50: > 100 µM
  TGI: 51.4 µM
OVCAR-8
  GI50: 4.94 µM
  CC50: > 100 µM
  TGI: 31.1 µM
CAKI-1
  TGI: >100 µM
  GI50: 5.25 µM
  CC50: > 100 µM
TK-10
  GI50: 3.87 µM
  LC50: > 100 µM
  TGI: 9.66 µM
DU-145
  TGI: 44.6 µM
  GI50: 6.37 µM
  CC50: > 100 µM
MCF7
  GI50: 2.57 µM
  CC50: 51.1 µM
  TGI: 18.2 µM
HS 578T
  TGI: 7.11 µM
  GI50: 1 µM
  CC50: > 100 µM
MDA-MB-468
  GI50: 2.53 µM
  CC50: 55.1 µM
  TGI: 9.51 µM
